Test results as given in article PMC5149029, “New Aspects of Silibinin Stereoisomers and their 3-O-galloyl Derivatives on Cytotoxicity and Ceramide Metabolism in Hep G2 hepatocarcinoma Cell Line” (Iranian Journal of Pharmaceutical Research : IJPR, 2016).
Marks after values point to notes of the source that are not given here.

How the values were obtained:
Acid ceramidase (ACDase) = target: T1, Acid ceramidase (ACDase) (Homo sapiens, UniProt Q13510); test: ACDase activity assay (fluorogenic); assay type: cell-based; settings: Hep G2, 125 µM and higher concentrations
T1 construct: endogenous in cells; host or cells: Hep G2
T1 sequence (Q13510 22-395): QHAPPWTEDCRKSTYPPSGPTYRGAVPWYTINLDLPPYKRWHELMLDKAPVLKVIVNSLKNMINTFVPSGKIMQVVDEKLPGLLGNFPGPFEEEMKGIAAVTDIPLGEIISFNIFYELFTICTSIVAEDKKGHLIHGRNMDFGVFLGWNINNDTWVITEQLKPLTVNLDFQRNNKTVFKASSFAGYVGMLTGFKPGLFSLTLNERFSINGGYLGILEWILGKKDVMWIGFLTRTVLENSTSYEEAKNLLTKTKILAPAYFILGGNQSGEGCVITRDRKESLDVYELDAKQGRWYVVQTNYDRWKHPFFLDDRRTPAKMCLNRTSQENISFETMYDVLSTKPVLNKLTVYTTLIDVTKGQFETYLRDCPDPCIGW
Procedure: (§1) The cell line was grown in RPMI-1640 medium supplemented with L-glutamine 2 mM, HEPESNa 25 mM, penicillin 100 U/mL, streptomycin 100 μg/mL and 10% […] (FBS) at 37 °C in a humidified atmosphere containing 5% CO2. Hep G2 cells were seeded at 1 × 10^6 cells/mL and sub cultured every 2–3 days after 60–80% confluence was reached. To prepare the lysates cells attached to the culture plate were scraped off with a cell scraper and collected in a 1.5 mL tube by centrifugation. The cell pellets were rinsed with PBS, suspended in sterile water, and then lysed by sonication. For each experiment, the cells were treated separately with increasing concentrations of silibinin derivatives (0, 25, 50, 75, 100, 125, 150, 175 and 200 μM) and incubated for 48 h.
ACDase activity was measured in intact cells and in cell lysates by fluorogenic assays. For intact cell assays, cells (10,000/well) were seeded into 96-well plates in 10% FBS medium. After 24 h, medium was removed and replaced with 5% FBS medium containing indicated concentrations of silibinin derivatives (controls contained ethanol vehicle). Plates were placed in a tissue culture incubator at 37 °C, 5% CO2 for 24 h and cell viability assays were conducted in parallel. Fluorogenic substrate (ethanol vehicle) was then added to a final concentration of 16μM (125 μL final well volume), and the plates were incubated for 3 h at 37 °C, 5% CO2. To complete the assays, 50 μL methanol and 100 μL NaIO4 (2.5 mg/mL) in 0.1 M glycine buffer with a pH of 10.6 were added and the plates were incubated in a dark place for 2 h at 37 °C. Fluorescence was measured in the UV range (365 nm excitation/410–460 nm emission) using a GloMax® multi-detection system (Promega, Madison, WI).
To measure ACDase activity in cell lysates, cells were harvested using trypsin/EDTA, washed three times in ice-cold PBS and re-suspended at a concentration of 1 × 10^6 cells/mL in 0.2 M sucrose. After sonication on ice (microtip, 5–10 s), lysates were centrifuged at 20,000 × g at 4 °C for 15 min to remove debris. Protein in the supernatant was measured using the BCA assay (Pierce Products, Thermo Scientific, Rockford, IL) and bovine serum albumin standard curves. Supernatant protein (60 μg) was added to 96-well plates containing the indicated compounds and sodium acetate–acetic acid buffer, pH 4.5 (25 mM), and incubated for 1 h at 37 °C, in final well volume of 100 μL. Fluorescent substrate was added to a final concentration of 40 μM (125 μL total well volume), and the assay was incubated in the dark at 37 °C for 3 h. Fluorescence was then measured as described above ([23]).

[1] = system: Neutral sphingomyelinase (NSMase); test: NSMase activity assay (Amplex Red kit); assay type: cell-based, human; settings: Hep G2, all concentrations (0-200 µM)
Procedure: as §1
Amplex™ Red NSMase Assay Kit (AAT Bioquest®, Inc. product no: 13620) was used to determine NSMases activity. The kit uses Amplite™ Red as a colorimetric probe to indirectly quantify the phosphocholine produced from the hydrolysis of sphingomyelin by NSMase.
Cells were washed with ice cold PBS and homogenized in neutral lysis buffer (20 mM Tris–HCl pH 7.4, 2 mM EDTA, 5 mM EGTA, 1 mM PMSF, 1% protein cocktail inhibitor and 1 mM sodium orthovanadate) for NSMase assays. Samples were kept on ice 15 min and centrifuged at 14,000 × g for 20 min at 4 °C. 100 µL of each supernatant fraction were incubated at 37 °C for 1hour with working solution. The fluorescence count of produced resorophine in the previous step was measured with a fluorescence micro plate reader by using excitation at 540 nm and emission at 590 nm ([36]).

Hep G2 cells = test: Cell viability, MTT colorimetric assay; assay type: cell-based; settings: Hep G2, 48 h
Procedure: The cell line was grown in RPMI-1640 medium supplemented with L-glutamine 2 mM, HEPESNa 25 mM, penicillin 100 U/mL, streptomycin 100 μg/mL and 10% phosphate-buffered saline (FBS) at 37 °C in a humidified atmosphere containing 5% CO2. Hep G2 cells were seeded at 1 × 10^6 cells/mL and sub cultured every 2–3 days after 60–80% confluence was reached. […] For each experiment, the cells were treated separately with increasing concentrations of silibinin derivatives (0, 25, 50, 75, 100, 125, 150, 175 and 200 μM) and incubated for 48 h.
To measure cell viability, the 3-(4,5-dimethylthiazol-2-yl)-2,5-diphenyl tetrazolium bromide (MTT) colorimetric assay was performed as published ([32], [33]). Briefly, Hep G2 cells were seeded onto 96 flat bottom well plates (50 × 10^3 cells/well) and grown overnight. After the incubation period with silibinin isomers, cells were washed twice with phosphate-buffered saline solution and incubated with MTT solution at a final concentration of 0.5 mg/mL for 3 h and then lysed in dimethyl sulfoxide. Optical density was measured at 540 nm and the background absorbance measured at 660 nm was subtracted. Each experiment was replicated separately for three times.

caspase-3 = test: Caspase-3 activity, colorimetric substrate Ac-DEVD-pNA; assay type: cell-based, human; settings: Hep G2, 48 h, control 0.38
Procedure: as §1
(§2) The activities of caspase-3 and 9 were measured using colorimetric substrates. Cells were added to a lysis buffer (100 mM HEPES [pH 7.5], 0.1% CHAPS, 1 mM PMSF, 10 mM MDTT, 1 mM EDTA) and placed on ice for 30 min. After the cells were centrifuged at 10,000 × g for 10 min at 4 °C, 50 μg of protein from the supernatants was added to each of the caspase substrates. The colorimetric substrates for caspase-3 and 9 were Ac-DEVD-pNA (Asp-Glu-Val-Asp-pNA) and Ac-LEHD-pNA (N-acetyl-Leu-Glu-His-Asp-pNA), respectively. After a 2 h incubation, to measure p-nitroanilide absorbance was determined at 405 nm ([34]).

caspase-9 = test: Caspase-9 activity, colorimetric substrate Ac-LEHD-pNA; assay type: cell-based, human; settings: Hep G2, 48 h, control 0.26
Procedure: as §1, §2

For `COc1cc([C@@H]2Oc3cc([C@H]4Oc5cc(O)cc(O)c5C(=O)[C@@H]4OC(=O)c4cc(O)c(O)c(O)c4)ccc3O[C@H]2CO)ccc1O` [SGB, 3-O-galloyl silybin B], the “ACDase activity in cell extract compared to control” value (Acid ceramidase (ACDase)) was “markedly inhibited”, the “NSMase activity with respect to control” value [1] was “did not exert any significant change” and the “Cell viability (% of control)” value (Hep G2 cells; 25 micro molar) was 91 + 10.0 % of control. For the same molecule, the “Cell viability (% of control)” value (Hep G2 cells; 50 micro molar) was 78 + 9.5^* % of control, the “Cell viability (% of control)” value (Hep G2 cells; 75 micro molar) was 65 + 8.6^* % of control and the “Cell viability (% of control)” value (Hep G2 cells; 100 micro molar) was 56 + 7.7^* % of control. For the same molecule, the “Cell viability (% of control)” value (Hep G2 cells; 125 micro molar) was 49 + 6.9^* % of control, the “Cell viability (% of control)” value (Hep G2 cells; 150 micro molar) was 35 + 5.1^* % of control and the “Cell viability (% of control)” value (Hep G2 cells; 175 micro molar) was 29 + 4.3^* % of control. For the same molecule, the “Caspase-3 (ΔOD 405nm)” value (caspase-3; 25 micro molar) was 0.45 ± 0.065 ΔOD 405nm, the “Caspase-3 (ΔOD 405nm)” value (caspase-3; 50 micro molar) was 0.56 ± 0.070 ΔOD 405nm and the “Caspase-3 (ΔOD 405nm)” value (caspase-3; 75 micro molar) was 0.62 ± 0.081 ΔOD 405nm. The “Caspase-3 (ΔOD 405nm)” value (caspase-3; 100 micro molar) was 0.78 ± 0.095 ΔOD 405nm, the “Caspase-3 (ΔOD 405nm)” value (caspase-3; 125 micro molar) was 0.98 ± 0.128 ΔOD 405nm and the “Caspase-3 (ΔOD 405nm)” value (caspase-3; 150 micro molar) was 1.21 ± 0.160 ΔOD 405nm. For the same molecule, the “Caspase-3 (ΔOD 405nm)” value (caspase-3; 175 micro molar) was 1.53 ± 0.209 ΔOD 405nm, the “Caspase-3 (ΔOD 405nm)” value (caspase-3; 200 micro molar) was 1.63 ± 0.221 ΔOD 405nm and the “Caspase-9 (ΔOD 405nm)” value (caspase-9; 25 micro molar) was 0.30 ± 0.048 ΔOD 405nm. The “Caspase-9 (ΔOD 405nm)” value (caspase-9; 50 micro molar) was 0.41 ± 0.053 ΔOD 405nm, the “Caspase-9 (ΔOD 405nm)” value (caspase-9; 75 micro molar) was 0.46 ± 0.046 ΔOD 405nm and the “Caspase-9 (ΔOD 405nm)” value (caspase-9; 100 micro molar) was 0.53 ± 0.077 ΔOD 405nm. For the same molecule, the “Caspase-9 (ΔOD 405nm)” value (caspase-9; 125 micro molar) was 0.70 ± 0.093 ΔOD 405nm, the “Caspase-9 (ΔOD 405nm)” value (caspase-9; 150 micro molar) was 0.89 ± 0.108 ΔOD 405nm and the “Caspase-9 (ΔOD 405nm)” value (caspase-9; 175 micro molar) was 1.18 ± 0.192 ΔOD 405nm. The “Caspase-9 (ΔOD 405nm)” value (caspase-9; 200 micro molar) was 1.34 ± 0.207 ΔOD 405nm.
